# System: genotype 1b (Con-1) HCV replicon
# Test: HCV replicon luciferase assay, genotype 1b
# Assay type: cell-based
# Settings: Hepatitis C virus, Huh-7, 72 h, Huh-7 cells with genotype 1b HCV replicon, Renilla luciferase, 3 days incubation
# Method: The cell lines used to evaluate compounds consist of a human hepatocyte derived cell line (Huh-7) that constitutively expresses a genotype 1b (Con-1) HCV replicon or a genotype 1b (Con-1) HCV replicon with an asparagine replacing the cysteine at amino acid 316, or a genotype 2a (JFH-1) replicon, containing a Renilla luciferase reporter gene. These cells were maintained in Dulbecco's modified Eagle medium (DMEM) containing 10% FBS, 100 U/mL penicillin/streptomycin and 1.0 mg/mL G418.
# To evaluate compound efficacy, titrated compounds were transferred to sterile 384-well tissue culture treated plates, and the plates were seeded with HCV replicon cells (50 μL at a density of 2.4×10^3 cells/well) in DMEM containing 4% FBS (final DMSO concentration at 0.5%). After 3 days incubation at 37° C., cells were analyzed for Renilla Luciferase activity using the EnduRen substrate (Promega cat #E6485) according to the manufacturer's directions. Briefly, the EnduRen substrate was diluted in DMEM and then added to the plates to a final concentration of 7.5 μM. The plates were incubated for at least 1 h at 37° C. then read on a Viewlux Imager (PerkinElmer) using a luminescence program. The 50% effective concentration (EC50) was calculated using the four-parameter logistic formula noted above.
SMILES,EC50 (class symbol) [µM],EC50 (numeric value) [µM]
"CCOC(=O)c1c(-c2ccc(F)cc2)oc2c1cc(OC(C)C)c1[nH]ccc12 [Compound 1001, ethyl 2-(4-fluorophenyl)-5-isopropoxy-6H-furo[2,3-e]indole-3-carboxylate]",> 1,
"CNC(=O)c1c(-c2ccc(F)cc2)oc2c1cc(OC(C)C)c1[nH]ccc12 [Compound 1002, 2-(4-fluorophenyl)-5-isopropoxy-N-methyl-6H-furo[2,3-e]indole-3-carboxamide]",> 1,
CNC(=O)c1c(-c2ccc(F)cc2)oc2c1cc(-c1cccc(C(=O)OC)c1)c1[nH]ccc12 [Compound 1003],> 1,1.46
"CNC(=O)c1c(-c2ccc(F)cc2)oc2c1cc(-c1cccc(C(=O)OC(C)(C)C)c1)c1[nH]ccc12 [Compound 1004, tert-butyl 3-(2-(4-fluorophenyl)-3-(methylcarbamoyl)-6H-furo[2,3-e]indol-5-yl)benzoate]",0.1 to 1,
"CNC(=O)c1c(-c2ccc(F)cc2)oc2c1cc(-c1cccc(C(=O)NC(C)(C)C)c1)c1[nH]ccc12 [Compound 1005, 5-(3-(tert-butylcarbamoyl)phenyl)-2-(4-fluorophenyl)-N-methyl-6H-furo[2,3-e]indole-3-carboxamide]",< 0.1,0.05
CNC(=O)c1c(-c2ccc(F)cc2)oc2c1cc(-c1cccc(C(=O)NC(C)(C)C)c1)c1[nH]cc(C)c12 [Compound 1006],0.1 to 1,0.51
CNC(=O)c1c(-c2ccc(F)cc2)oc2c1cc(-c1cccc(C(=O)NC(C)(C)C)c1)c1[nH]c(-c3ccccc3)cc12 [Compound 1007],0.1 to 1,
CNC(=O)c1c(-c2ccc(F)cc2)oc2c1cc(-c1cccc(C(=O)NC(C)(C)C)c1)c1[nH]c(C)cc12 [Compound 1008],0.1 to 1,
CNC(=O)c1c(-c2ccc(F)cc2)oc2c1cc(-c1ccc(OC)c(C(=O)NCC(F)(F)C(F)(F)C(F)(F)F)c1)c1[nH]ccc12 [Compound 1009],< 0.1,
CNC(=O)C(=O)c1c[nH]c2c(OC(C)C)cc3c(C(=O)NC)c(-c4ccc(F)cc4)oc3c12 [Compound 2001],> 1,
CNC(=O)c1c(-c2ccc(F)cc2)oc2c1cc(OC(C)C)c1[nH]cc(C(=O)C(=O)O)c12 [Compound 2002],> 1,
"CNC(=O)c1c(-c2ccc(F)cc2)oc2c1cc(-c1cccc(C(=O)NC(C)(C)C)c1)c1[nH]cc(C(=O)C(=O)OC)c12 [Compound 2003, methyl 2-(5-(3-(tert-butylcarbamoyl)phenyl)-2-(4-fluorophenyl)-3-(methylcarbamoyl)-6H-furo[2,3-e]indol-8-yl)-2-oxoacetate]",0.1 to 1,0.44
"CNC(=O)c1c(-c2ccc(F)cc2)oc2c1cc(-c1cccc(C(=O)NC(C)(C)C)c1)c1[nH]cc(C(=O)C(=O)O)c12 [Compound 2004, 2-(5-(3-(tert-butylcarbamoyl)phenyl)-2-(4-fluorophenyl)-3-(methylcarbamoyl)-6H-furo[2,3-e]indol-8-yl)-2-oxoacetic acid]",> 1,
CNC(=O)C(=O)c1c[nH]c2c(-c3cccc(C(=O)NC(C)(C)C)c3)cc3c(C(=O)NC)c(-c4ccc(F)cc4)oc3c12 [Compound 2005],> 1,5.16
CNC(=O)c1c(-c2ccc(F)cc2)oc2c1cc(-c1cccc(C(=O)NC(C)(C)C)c1)c1[nH]cc(C(=O)C(=O)N(C)C)c12 [Compound 2006],> 1,
"CNC(=O)c1c(-c2ccc(F)cc2)oc2c1cc(-c1cccc(C(=O)O)c1)c1[nH]ccc12 [Compound 3001, 3-(2-(4-fluorophenyl)-3-(methylcarbamoyl)-6H-furo[2,3-e]indol-5-yl)benzoic acid]",> 1,
"CNC(=O)c1c(-c2ccc(F)cc2)oc2c1cc(-c1cccc(C(=O)O)c1)c1c2ccn1C(=O)C(F)(F)F [Compound 3002, 3-(2-(4-fluorophenyl)-3-(methylcarbamoyl)-6-(2,2,2-trifluoroacetyl)-6H-furo[2,3-e]indol-5-yl)benzoic acid]",> 1,
CNC(=O)c1c(-c2ccc(F)cc2)oc2c1cc(-c1cccc(C(=O)NC(C)(C)C)c1)c1c2ccn1C(=O)C(F)(F)F [Compound 3003],0.1 to 1,0.2
"CNC(=O)c1c(-c2ccc(F)cc2)oc2c1cc(-c1cccc(C(=O)NCC(C)(C)C)c1)c1[nH]ccc12 [Compound 4001, 2-(4-fluorophenyl)-N-methyl-5-(3-(neopentylcarbamoyl)phenyl)-6H-furo[2,3-e]indole-3-carboxamide]",< 0.1,0.083
CNC(=O)c1c(-c2ccc(F)cc2)oc2c1cc(-c1cccc(C(=O)NC34CC(C3)C4)c1)c1[nH]ccc12 [Compound 4002],< 0.1,
CNC(=O)c1c(-c2ccc(F)cc2)oc2c1cc(-c1cccc(C(=O)NC(C)(C)CCO)c1)c1[nH]ccc12 [Compound 4003],< 0.1,
CNC(=O)c1c(-c2ccc(F)cc2)oc2c1cc(-c1cccc(C(=O)NC(C)(C)C(=O)OC)c1)c1[nH]ccc12 [Compound 4004],< 0.1,
CNC(=O)c1c(-c2ccc(F)cc2)oc2c1cc(-c1cccc(C(=O)NCC(C)(F)F)c1)c1[nH]ccc12 [Compound 4005],0.1 to 1,0.15

SMILES,EC50 (class symbol) [µM],EC50 (numeric value) [µM]
CNC(=O)c1c(-c2ccc(F)cc2)oc2c1cc(-c1cccc(C(=O)NC3(c4ncccn4)CC3)c1)c1[nH]ccc12 [Compound 4006],< 0.1,
CNC(=O)c1c(-c2ccc(F)cc2)oc2c1cc(-c1cccc(C(=O)NCC(F)(F)C(F)(F)C(F)(F)F)c1)c1[nH]ccc12 [Compound 4007],< 0.1,0.049
CNC(=O)c1c(-c2ccc(F)cc2)oc2c1cc(-c1cccc(C(=O)NCC(C)(C)CO)c1)c1[nH]ccc12 [Compound 4008],0.1 to 1,0.13
"CNC(=O)c1c(-c2ccc(F)cc2)oc2c1cc(-c1cccc(C(=O)NCC(C)(C)c3ccc(Cl)cc3)c1)c1[nH]ccc12 [Compound 4009, 5-(3-((2-(4-chlorophenyl)-2-methylpropyl)carbamoyl)phenyl)-2-(4-fluorophenyl)-N-methyl-6H-furo[2,3-e]indole-3-carboxamide]",0.1 to 1,
CNC(=O)c1c(-c2ccc(F)cc2)oc2c1cc(-c1cccc(C(=O)NC(C)(C)c3ccc(Cl)cc3)c1)c1[nH]ccc12 [Compound 4010],< 0.1,0.027
CNC(=O)c1c(-c2ccc(F)cc2)oc2c1cc(-c1cccc(C(=O)NCC3(CO)CCC3)c1)c1[nH]ccc12 [Compound 4011],0.1 to 1,
CNC(=O)c1c(-c2ccc(F)cc2)oc2c1cc(-c1cccc(C(=O)NC3(C(=O)OC)CCC3)c1)c1[nH]ccc12 [Compound 4012],0.1 to 1,
C#CC(C)(C)NC(=O)c1cccc(-c2cc3c(C(=O)NC)c(-c4ccc(F)cc4)oc3c3cc[nH]c23)c1 [Compound 4013],< 0.1,
CNC(=O)c1c(-c2ccc(F)cc2)oc2c1cc(-c1cccc(C(=O)NCC(C)(C)c3ccccc3)c1)c1[nH]ccc12 [Compound 4016],0.1 to 1,
C#CC1(NC(=O)c2cccc(-c3cc4c(C(=O)NC)c(-c5ccc(F)cc5)oc4c4cc[nH]c34)c2)CCCCC1 [Compound 4017],0.1 to 1,
C#CC(CC)(CC)NC(=O)c1cccc(-c2cc3c(C(=O)NC)c(-c4ccc(F)cc4)oc3c3cc[nH]c23)c1 [Compound 4018],< 0.1,
C#CC(C)(CC)NC(=O)c1cccc(-c2cc3c(C(=O)NC)c(-c4ccc(F)cc4)oc3c3cc[nH]c23)c1 (stereo not shown) [Compound 4019],0.1 to 1,
CNC(=O)c1c(-c2ccc(F)cc2)oc2c1cc(-c1cccc(C(=O)NCC(F)(F)c3ccccn3)c1)c1[nH]ccc12 [Compound 4020],0.1 to 1,
C#CC(C)NC(=O)c1cccc(-c2cc3c(C(=O)NC)c(-c4ccc(F)cc4)oc3c3cc[nH]c23)c1 (stereo not shown) [Compound 4021],0.1 to 1,
CNC(=O)c1c(-c2ccc(F)cc2)oc2c1cc(-c1cccc(C(=O)NC(C)(C)C#N)c1)c1[nH]ccc12 [Compound 4022],< 0.1,0.015
"CNC(=O)c1c(-c2ccc(F)cc2)oc2c1cc(OC(C)C)c1c2ccn1S(C)(=O)=O [Compound 5001, 2-(4-fluorophenyl)-5-isopropoxy-N-methyl-6-(methylsulfonyl)-6H-furo[2,3-e]indole-3-carboxamide]",> 1,
CNC(=O)c1c(-c2ccc(F)cc2)oc2c1cc(-c1cccc(C(=O)NC(C)(C)C)c1)c1c2ccn1S(C)(=O)=O [Compound 5002],< 0.1,
CNC(=O)c1c(-c2ccc(F)cc2)oc2c1cc(-c1cccc(C(=O)NC(C)(C)C)c1)c1c2c(C)cn1S(C)(=O)=O [Compound 5003],> 1,
CNC(=O)c1c(-c2ccc(F)cc2)oc2c1cc(-c1cccc(C(=O)NC(C)(C)C)c1)c1c2cc(-c2ccccc2)n1S(C)(=O)=O [Compound 5004],0.1 to 1,
CNC(=O)c1c(-c2ccc(F)cc2)oc2c1cc(-c1cccc(C(=O)NC(C)(C)C)c1)c1c2cc(C)n1S(C)(=O)=O [Compound 5005],> 1,
CNC(=O)c1c(-c2ccc(F)cc2)oc2c1cc(-c1cccc(C(=O)NC(C)(C)c3ccc(Cl)cc3)c1)c1c2ccn1S(C)(=O)=O [Compound 5006],< 0.1,
CNC(=O)c1c(-c2ccc(F)cc2)oc2c1cc(OC(C)C)c1c2ccn1CC(F)F [Compound 6001],> 1,
CCn1ccc2c3oc(-c4ccc(F)cc4)c(C(=O)NC)c3cc(OC(C)C)c21 [Compound 6002],> 1,

# — patent publication US9914739B2, “6H-furo[2,3-E]indole compounds for the treatment of hepatitis C” (BRISTOL-MYERS SQUIBB COMPANY, priority 2014, dated 2018)
